The term inhibition denotes the percentage by which the read-out fell short of the control. As a reminder, the IC50 is the concentration at which inhibition is half-maximal. High values mean weaker potency in that assay, low ones greater potency in that assay.

The record followed here is patent US10500207B2, “Compounds for the treatment of diseases associated with amyloid or amyloid-like proteins” (AC Immune SA, priority 2010, dated 2019).

The test addresses Aβ1-42 peptide (Homo sapiens, UniProt P05067). Description: Thioflavin T spectrofluorescence assay (ThT-assay): inhibition of Aβ1-42 aggregation (% inhibition at 330 μM; IC50 from dilution series). To be noted: for inhibition at 330 µM: 24 h, read-out: Inhibition at 330 μM [%], ThT assay, 330 μM small molecule, 33 μM Aβ1-42 (10:1), 24 hrs at 37° C., mean ± standard deviation of two independent experiments; for IC50: ThT assay, dilution series 330 μM to 0.08 μM.

Chain of Aβ1-42 peptide (P05067 672-713 limits assumed): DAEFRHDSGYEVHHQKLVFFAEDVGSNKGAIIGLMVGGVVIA
Experimental: Aβ1-42 lyophilized powder (Bachem) was reconstituted in hexafluoroisopropanol (HFIP) to 1 mM. The peptide solution was sonicated for 15 min at room temperature, agitated overnight, and aliquots were made into non-siliconized microcentrifuge tubes. The HFIP was then evaporated under a stream of argon. The resulting peptide film was dried under vacuum for 10 min, tightly sealed and stored at −80° C. until used.
A positive control without a small molecule was prepared to measure maximum RFU. A negative control without Aβ1-42 was prepared for each small molecule. […] The solutions were then incubated for 24 hrs at 37° C., and the spectrofluorescence (relative fluorescence units; RFU) were read in six replicates in black 384-well assay plates (Perkin-Elmer) on a Perkin-Elmer FluoroCount spectrofluorometer. The inhibition of aggregation is expressed as mean % inhibition±1 standard deviation (SD) according to the following equation:
Racemic compounds and their enantiomers were tested for their ability to inhibit amyloid peptide aggregation using the ThT assay. To determine the IC50, the following dilutions of the compounds were used in the ThT assay described above:

Regarding `CC(=O)N(C)C1CCc2c(c3ccc(Nc4ccc(N5CCOCC5)cc4)nc3n2C)C1` (centres unmarked) [Example 164], the inhibition at 330 µM amounted to 69.4 ± 2.7%.

`CNC1CCc2c(c3ccc(Nc4ccc(N5CCOCC5)cc4)nc3n2C)C1` (single isomer, unassigned) [Example 216b]: the IC50 turned out to be 45 µM (IC50 μM 1st assay, 1st assay) and 34.5 µM (IC50 μM 2nd assay, 2nd assay).

Take `CNC1CCc2c(c3ccc(Nc4ccc(N5CCN(C)CC5)cc4)nc3n2C)C1` (centres unmarked) [Example 83]: the inhibition at 330 µM is 82.7 ± 0.7%. For the compound `CN1CCC(c2cn(C)c3cc(Nc4cccc(N5CCOCC5)c4)ccc23)CC1` [Example 75], the inhibition at 330 µM stood at 97.1 ± 2%. With `COC1CCc2c(c3ccc(Nc4ccc5c(c4)OCO5)nc3n2C)C1` (centres unmarked) [Example 205], the inhibition at 330 µM came to 91.7 ± 0.1%. On the same count and under the same terms, the same measure for `CNC1CCc2c(c3ccc(Nc4cc(F)c(F)cc4F)nc3n2C)C1` (centres unmarked) [Example 28]: 91.4 ± 2.9%; for `c1cc2ccc(Nc3ccc4cc[nH]c4c3)cc2[nH]1` [Example 17]: 96.3%. The same measure, in the same setting: the same measure for `c1cc2c(C3CCNCC3)c[nH]c2cc1Nc1ccc2c3c([nH]c2n1)CCC3` [Example 46]: 99.4%; for `CN1CCN(c2ccc(Nc3ccc4[nH]c5c(c4c3)CC(N(C)C)CC5)cc2)CC1` (centres unmarked) [Example 77]: 98 ± 0.6%. `COc1ccc(Nc2ccc3[nH]c4c(c3c2)CC(N(C)C)CC4)cc1OC` (centres unmarked) [Example 88]: the inhibition at 330 µM turned out to be 96.9 ± 2.6%.

With `CNC1CCc2c(c3ccc(Nc4ccc5c(c4)OCO5)nc3n2C)C1` (centres unmarked) [Example 157], the inhibition at 330 µM stood at 95 ± 1.5%. For the compound `CN1CCC(c2c[nH]c3cc(Nc4ccc5c(C6CCN(C)CC6)cn(C)c5n4)ccc23)CC1` [Example 196], the inhibition at 330 µM is 80 ± 4.6%. Take `c1ccc(CNc2ccc3cc[nH]c3n2)nc1` [Example 2]: the inhibition at 330 µM was 47.4 ± 8.9%. Regarding `c1cc2c(cc1Nc1ccc3c(C4CCNCC4)c[nH]c3c1)CCC2` [Example 65], the inhibition at 330 µM came to 95.9 ± 1.3%. Same read-out and setting: next, `c1cc(N2CCOCC2)ccc1Nc1ccc2c(C3CCNCC3)c[nH]c2n1` [Example 69]: 86.5 ± 7.2%. Regarding `COC1CCc2[nH]c3cc(Nc4ccc5c(c4)OCCO5)ccc3c2C1` (centres unmarked) [Example 127], the inhibition at 330 µM was 91.5 ± 2.5%. Consider `CNC1(C)CCc2c(c3ccc(Nc4ccc(F)c(F)c4)nc3n2C)C1` (centres unmarked) [Example 89], for which the inhibition at 330 µM is 89.6 ± 5%. For the compound `COC1CCc2c(c3ccc(Nc4ccc(N5CCOCC5)cc4)nc3n2C)C1` (centres unmarked) [Example 193], the inhibition at 330 µM is 54.3 ± 3.4%. Take `FC1(CNc2ccc3c(C4CCNCC4)c[nH]c3n2)CCNCC1` [Example 37]: the inhibition at 330 µM was determined as 47.4 ± 5.2%. As for `Fc1ccc(Nc2ccc3c(c2)OCO3)cc1F` [Example 186], the inhibition at 330 µM is 66.5 ± 2.4%.

As to `c1cc2c(cc1Nc1ccc3c(c1)OCO3)OCO2` [Example 187], the inhibition at 330 µM is 82.2 ± 6%.

Turning to `Cn1c2c(c3ccc(Nc4ccc(F)c(F)c4)cc31)CN(CCCCS(C)(=O)=O)CC2` [Example 210], the inhibition at 330 µM is 43.2 ± 12.9%. On to `CC(C)OC1CCc2c(c3ccc(Nc4ccc5c(c4)OCCO5)nc3n2C)C1` (centres unmarked) [Example 203], for which the inhibition at 330 µM turned out to be 93.4 ± 3.5%.

Turning to `Cn1c2c(c3ccc(Nc4ccc5c(c4)OCC(=O)N5)nc31)CCCC2` [Example 167], the inhibition at 330 µM was found to be 88.9 ± 2.6%. With `CNC1CCc2c(c3cc(Nc4ccc(OC)c(OC)c4)cnc3n2C)C1` (centres unmarked) [Example 135], the inhibition at 330 µM stood at 51.9 ± 5.5%.

In the case of `Cn1cc(C2CCNCC2)c2ccc(Nc3cccc(N4CCOCC4)c3)cc21` [Example 70], the inhibition at 330 µM worked out at 91 ± 1.2%.

Regarding `CN(C)C1CCc2[nH]c3ccc(Nc4ccc(N5CCOCC5)cc4)cc3c2C1` (centres unmarked) [Example 76], the inhibition at 330 µM worked out at 96.9 ± 2.3%.

As to `CN1CCC(c2c[nH]c3cc(N4CCc5ccccc5C4)ccc23)CC1` [Example 23], the inhibition at 330 µM was 97.8 ± 1.5%. Still for that read-out and setting: the same measure for `COc1cc(Nc2ccc3c(c2)c2c(n3C)CCC(OC)C2)ccc1F` (centres unmarked) [Example 122]: 80.8 ± 2.9%. `CNC1CCc2[nH]c3ccc(Nc4ccc(F)c(OC)c4)cc3c2C1` (centres unmarked) [Example 116]: the inhibition at 330 µM is 89 ± 3.6%. For the compound `c1cc2cc(Nc3ccc4cc[nH]c4n3)ccc2[nH]1` [Example 18], the inhibition at 330 µM stood at 97 ± 1.2%. As to `Fc1ccc(Nc2ccc3cc[nH]c3n2)cc1F` [Example 3], the inhibition at 330 µM was found to be 56.6 ± 23%.

As to `Cn1c2c(c3ccc(Nc4ccc5c(c4)OCCO5)nc31)CCC2` [Example 173], the inhibition at 330 µM amounted to 90.1 ± 2.3%. For the compound `Cn1c2c(c3ccc(Nc4ccc(N5CCOCC5)cc4)nc31)CCCC2` [Example 165], the inhibition at 330 µM worked out at 78.1 ± 0.2%. On to `CNC1CCc2[nH]c3nc(Nc4ccc(C(F)(F)F)nc4)ccc3c2C1` (centres unmarked) [Example 25], for which the inhibition at 330 µM came to 63.4 ± 9%. Turning to `Cn1c2c(c3ccc(Nc4ccc5c(c4)OCCO5)cc31)CNCC2` [Example 202], the inhibition at 330 µM was 86.1 ± 1.6%. On the same count and under the same terms, the same measure for `CNC1CCc2c(c3ccc(Nc4ccc(F)c(OC)c4)nc3n2C)C1` (centres unmarked) [Example 115]: 94 ± 0.8%; for `Fc1cc(F)cc(Nc2ccc3cc[nH]c3n2)c1` [Example 6]: 60.1 ± 3.5%. Consider `CN1CCC(c2c[nH]c3cc(Nc4ccc5c(c4)OCCCO5)ccc23)CC1` [Example 78], for which the inhibition at 330 µM was determined as 75 ± 1.4%. Regarding `CN1CCC(c2c[nH]c3cc(Nc4ccc5c(C6CCN(C)CC6)c[nH]c5n4)ccc23)CC1` [Example 148], the inhibition at 330 µM was 88.7 ± 2.2%.

For `CN1CCC(c2c[nH]c3cc(Nc4ccc(F)cc4)ccc23)CC1` [Example 195], the inhibition at 330 µM came to 89.7 ± 2.4%.

In the case of `CNC1CCc2c(c3ccc(Nc4ccc5c(c4)OCC(=O)N5)nc3n2C)C1` (centres unmarked) [Example 85], the inhibition at 330 µM is 95.1 ± 0.9%. In the case of `CN1CCC(c2cn(C)c3nc(Nc4ccc(F)c(F)c4)ccc23)CC1` [Example 151], the inhibition at 330 µM came to 88.5 ± 2.8%. As to `Cn1cc(C2CCNCC2)c2ccc(Nc3ccc(N4CCOCC4)cc3)nc21` [Example 71], the inhibition at 330 µM worked out at 90.7 ± 3%. `Cn1cnc2ccc(Nc3ccc4c5c(n(C)c4n3)CCC5)cc21` [Example 175]: the inhibition at 330 µM stood at 75.5 ± 7.8%. In the case of `CN1CCC(c2c[nH]c3cc(Nc4ccc5[nH]cc(C6CCNCC6)c5c4)ccc23)CC1` [Example 68], the inhibition at 330 µM stood at 90.4 ± 5.3%.

For the compound `c1nc2c(C3CCNCC3)c[nH]c2cc1Nc1ccc2c3c([nH]c2n1)CCCC3` [Example 35], the inhibition at 330 µM stood at 97.7 ± 0.3%. For `Cn1c2c(c3cc(Nc4ccc(F)nc4)ccc31)CS(=O)(=O)CC2` [Example 183], the inhibition at 330 µM was determined as 42.3 ± 3.1%. As for `COc1ccc(Nc2ccc3c4c(n(C)c3c2)CCC(OC)C4)cc1OC` (centres unmarked) [Example 123], the inhibition at 330 µM is 93 ± 2.2%. In the case of `CNC1CCc2c(c3ccc(Nc4cc(F)c(F)c(F)c4)nc3n2C)C1` (centres unmarked) [Example 30], the inhibition at 330 µM was 84.3 ± 3.1%. Turning to `c1ccc2c(c1)CCC2Nc1ccc2c(C3CCNCC3)c[nH]c2c1` (centres unmarked) [Example 94], the inhibition at 330 µM came to 94.4 ± 3.6%. `CNC1CCc2c(c3ccc(Nc4ccc(N5CCOCC5)cc4)nc3n2C)C1` (single isomer, unassigned) [Example 216a] came in with an IC50 (IC50 μM 1st assay, 1st assay) of 99.3 µM and an IC50 (IC50 μM 2nd assay, 2nd assay) of 54.9 µM. On to `CN1CCC(c2c[nH]c3cc(Nc4ccc5ncn(C)c5c4)ccc23)CC1` [Example 200], for which the inhibition at 330 µM came to 67.4 ± 3.4%. On the same count and under the same terms, next, `COc1ccc(Nc2ccc3[nH]cc(C4CCN(C)CC4)c3c2)cc1OC` [Example 100]: 66.6 ± 1.3%.
